Measurements from patent US12612409B2, “Pyrrolopyrimidines as CFTR potentiators” (Cystic Fibrosis Foundation, priority 2016, dated 2026).

What was measured:
[1] = target: T1, recombinant F508del V470 CFTR in Fischer rat thyroid (FRT) cells (Homo sapiens, UniProt P13569, DEL508-508); test: FRT ion flux assay of F508del CFTR potentiation; type: cell-based; details: FRT cells expressing F508del V470 CFTR, forskolin 20 uM, 27° C. pre-incubation
T1 construct: expressed in transfected cells
Method in brief: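 FRT cells co-expressing F508del V470 CFTR and halide-sensitive YFP, temperature-corrected at 27° C for 16-24 h, then treated 30 min with compound plus 20 uM forskolin. Iodide addition quenches YFP, read after ~21 s; ratio scaled to DMSO (0%) and positive control potentiator (100%).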

[2] = target: T2, CFTR in F508del/F508del primary CF hBE cells (Homo sapiens, UniProt P13569, DEL508-508); test: Ussing chamber electrophysiology assay of CFTR potentiation in F508del/F508del CF bronchial epithelial cells (27° C.); type: cell-based
T2 construct: Primary cystic fibrosis human bronchial epithelial (CF hBE) cells were expanded and cultured; endogenous in cells; host or cells: primary CF human bronchial epithelial cells, genotype F508del/F508del
Method in brief: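 Well-differentiated primary CF hBE cells (>30 days air/liquid interface) in Ussing chambers, HEPES saline both sides, voltage clamped to zero. Amiloride 30 uM, forskolin 10 uM, four rising compound concentrations, then CFTRinh-172 20 uM added at 20-25 min intervals. Short-circuit current scaled to DMSO (0%) and a positive control potentiator maximum (100%).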

T2 sequence (P13569 with tags, fused parts or gaps DEL508-508): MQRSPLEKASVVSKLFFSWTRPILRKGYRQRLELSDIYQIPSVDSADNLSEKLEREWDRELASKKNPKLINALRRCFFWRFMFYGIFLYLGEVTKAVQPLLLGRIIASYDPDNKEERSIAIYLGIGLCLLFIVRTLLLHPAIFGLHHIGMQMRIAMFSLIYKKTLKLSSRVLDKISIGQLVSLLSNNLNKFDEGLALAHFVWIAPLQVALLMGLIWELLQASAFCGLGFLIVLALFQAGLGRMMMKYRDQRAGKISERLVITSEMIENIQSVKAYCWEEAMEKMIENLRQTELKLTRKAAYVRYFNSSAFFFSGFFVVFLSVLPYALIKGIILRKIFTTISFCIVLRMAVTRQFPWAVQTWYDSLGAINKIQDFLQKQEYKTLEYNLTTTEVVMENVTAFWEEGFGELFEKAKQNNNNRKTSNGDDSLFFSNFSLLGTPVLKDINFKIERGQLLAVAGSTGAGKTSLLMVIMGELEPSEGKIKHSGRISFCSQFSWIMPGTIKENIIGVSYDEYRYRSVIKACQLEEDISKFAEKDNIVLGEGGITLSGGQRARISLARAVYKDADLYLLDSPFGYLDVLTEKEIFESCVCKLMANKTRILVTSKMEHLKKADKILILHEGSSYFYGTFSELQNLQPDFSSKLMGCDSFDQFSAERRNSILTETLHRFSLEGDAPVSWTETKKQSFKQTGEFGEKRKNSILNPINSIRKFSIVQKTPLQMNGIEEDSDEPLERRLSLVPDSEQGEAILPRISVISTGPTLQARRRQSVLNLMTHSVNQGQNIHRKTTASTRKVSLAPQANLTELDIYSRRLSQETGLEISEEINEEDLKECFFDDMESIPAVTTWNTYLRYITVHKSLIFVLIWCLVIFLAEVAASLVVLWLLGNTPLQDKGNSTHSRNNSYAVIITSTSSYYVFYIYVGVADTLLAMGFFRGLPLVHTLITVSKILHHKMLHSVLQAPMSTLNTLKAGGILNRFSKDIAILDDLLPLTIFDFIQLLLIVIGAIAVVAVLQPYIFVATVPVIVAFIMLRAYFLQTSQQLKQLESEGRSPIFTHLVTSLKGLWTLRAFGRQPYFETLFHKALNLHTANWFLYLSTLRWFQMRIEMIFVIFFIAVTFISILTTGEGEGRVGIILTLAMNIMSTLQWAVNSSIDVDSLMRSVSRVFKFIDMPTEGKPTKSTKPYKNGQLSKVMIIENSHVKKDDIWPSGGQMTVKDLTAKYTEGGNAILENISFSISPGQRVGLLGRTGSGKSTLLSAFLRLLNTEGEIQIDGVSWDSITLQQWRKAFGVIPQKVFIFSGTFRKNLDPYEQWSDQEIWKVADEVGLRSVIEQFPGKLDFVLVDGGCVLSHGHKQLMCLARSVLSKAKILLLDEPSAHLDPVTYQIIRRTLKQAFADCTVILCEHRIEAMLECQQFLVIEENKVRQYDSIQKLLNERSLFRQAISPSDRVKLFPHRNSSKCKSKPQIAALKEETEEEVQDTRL
T1 sequence (P13569 with tags, fused parts or gaps DEL508-508): as above

EC50 [1]	EC50 [2]	SMILES
154 nM	453 nM	COc1ncncc1-c1cn(C(c2cn(-c3ccccc3F)nn2)C2CC2)c2ncnc(N)c12 (single isomer, unassigned; enantiomer 2) [Example 300, (−) 7-{Cyclopropyl[1-(2-fluorophenyl)-1H-1,2,3-triazol-4-yl]methyl}-5-(4-methoxypyrimidin-5-yl)-7H-pyrrolo[2,3-d]pyrimidin-4-amine, enantiomer 2]
219 nM	152 nM	COc1ccc(-c2c(C)n(Cc3cn(-c4ccc(F)cc4F)nn3)c3ncnc(N)c23)cn1 [Example 278, 7-{[1-(2,4-Difluorophenyl)-1H-1,2,3-triazol-4-yl]methyl}-5-(6-methoxypyridin-3-yl)-6-methyl-7H-pyrrolo[2,3-d]pyrimidin-4-amine]
16.2 nM	12.4 nM	CC(c1cn(-c2ccccc2F)nn1)n1cc(C2CCC2)c2c(N)ncnc21 (centres unmarked) [Example 247, 5-Cyclobutyl-7-{1-[1-(2-fluorophenyl)-1H-1,2,3-triazol-4-yl]ethyl}-7H-pyrrolo[2,3-d]pyrimidin-4-amine]
361 nM	140 nM	CC(c1cn(-c2ccccc2F)nn1)n1cc(-c2ccccc2)c2c(N)ncnc21 (centres unmarked) [Example 94, 7-{1-[1-(2-Fluorophenyl)-1H-1,2,3-triazol-4-yl]ethyl}-5-phenyl-7H-pyrrolo[2,3-d]pyrimidin-4-amine]
75.2 nM	150 nM	COc1cc(C#N)ccc1-c1cn(Cc2cn(-c3ccccc3F)nn2)c2ncnc(N)c12 [Example 79, 4-(4-Amino-7-{[1-(2-fluorophenyl)-1H-1,2,3-triazol-4-yl]methyl}-7H-pyrrolo[2,3-d]pyrimidin-5-yl)-3-methoxybenzonitrile]
176 nM	35.4 nM	Nc1ncnc2c1c(-c1ccc(Cl)cc1)cn2Cc1cnc(-c2ccccc2)[nH]1 [Example 264, 5-(4-Chlorophenyl)-7-[(2-phenyl-1H-imidazol-5-yl)methyl]-7H-pyrrolo[2,3-d]pyrimidin-4-amine]
250 nM	111 nM	CCC(c1cn(-c2cc(F)cc(F)c2)nn1)n1cc(-c2cnc(C(F)(F)F)nc2)c2c(N)ncnc21 (single isomer, unassigned; enantiomer 1) [Example 311, 7-{1-[1-(3,5-Difluorophenyl)-1H-1,2,3-triazol-4-yl]propyl}-5-[2-(trifluoromethyl)pyrimidin-5-yl]-7H-pyrrolo[2,3-d]pyrimidin-4-amine, enantiomer 1]
102 nM	55 nM	COc1ccc(-c2cn(C(C)c3cn(-c4ccccc4F)nn3)c3ncnc(N)c23)c(OC)c1 (centres unmarked) [Example 87, 5-(2,4-Dimethoxyphenyl)-7-{1-[1-(2-fluorophenyl)-1H-1,2,3-triazol-4-yl]ethyl}-7H-pyrrolo[2,3-d]pyrimidin-4-amine]
631 nM	297 nM	CCC(c1cn(-c2cc(F)ccc2F)nn1)n1cc(-c2cnc(C(F)(F)F)nc2)c2c(N)ncnc21 (single isomer, unassigned) [Example 186, 7-{1-[1-(2,5-difluorophenyl)-1H-1,2,3-triazol-4-yl]propyl}-5-[2-(trifluoromethyl)pyrimidin-5-yl]-7H-pyrrolo[2,3-d]pyrimidin-4-amine]
266 nM	261 nM	CCC(c1cn(-c2ccccc2F)nn1)n1cc(-c2cnc(C(F)(F)F)nc2)c2c(N)ncnc21 (single isomer, unassigned; enantiomer 2) [Example 138, 7-{1-[1-(2-Fluorophenyl)-1H-1,2,3-triazol-4-yl]propyl}-5-[2-(trifluoromethyl)pyrimidin-5-yl]-7H-pyrrolo[2,3-d]pyrimidin-4-amine, enantiomer 2]
12.2 nM	20.4 nM	CC(c1cn(-c2ccccc2F)nn1)n1c(C#N)c(-c2cnc(C(F)(F)F)nc2)c2c(N)ncnc21 (single isomer, unassigned) [Example 9, 4-amino-7-{1-[1-(2-fluorophenyl)-1H-1,2,3-triazol-4-yl]ethyl}-5-[2-(trifluoromethyl)pyrimidin-5-yl]-7H-pyrrolo[2,3-d] pyrimidine-6-carbonitrile]
669 nM	997 nM	COCC1CC1c1cn(Cc2cn(-c3ccccc3F)nn2)c2ncnc(N)c12 (centres unmarked) [Example 290, 7-{[1-(2-Fluorophenyl)-1H-1,2,3-triazol-4-yl]methyl}-5-[2-(methoxymethyl)cyclopropyl]-7H-pyrrolo[2,3-d]pyrimidin-4-amine]
100 nM	478 nM	COc1ncncc1-c1cn(Cc2cn(-c3ccccc3F)nn2)c2ncnc(N)c12 [Example 200, 7-{[1-(2-Fluorophenyl)-1H-1,2,3-triazol-4-yl]methyl}-5-(4-methoxypyrimidin-5-yl)-7H-pyrrolo[2,3-d]pyrimidin-4-amine]
63.6 nM	25.3 nM	COc1ncc(F)cc1-c1cn(Cc2cn(-c3ccccc3F)nn2)c2ncnc(N)c12 [Example 195, 5-(5-Fluoro-2-methoxypyridin-3-yl)-7-{[1-(2-fluorophenyl)-1H-1,2,3-triazol-4-yl]methyl}-7H-pyrrolo[2,3-d]pyrimidin-4-amine]
395 nM	199 nM	CCC(c1cn(-c2ccccc2)nn1)n1cc(-c2ccc(OC)nc2)c2c(N)ncnc21 (single isomer, unassigned; enantiomer 1) [Example 125, 5-(6-Methoxypyridin-3-yl)-7-[1-(1-phenyl-1H-1,2,3-triazol-4-yl)propyl]-7H-pyrrolo[2,3-d]pyrimidin-4-amine, enantiomer 1]
167 nM	189 nM	CC(c1cn(-c2ccccc2F)nn1)n1cc(C2CCC2)c2c(N)ncnc21 (single isomer, unassigned; enantiomer 1) [Example 294, 5-Cyclobutyl-7-{1-[1-(2-fluorophenyl)-1H-1,2,3-triazol-4-yl]ethyl}-7H-pyrrolo[2,3-d]pyrimidin-4-amine, enantiomer 1]
2740 nM	1640 nM	CCC(c1cn(-c2ccccc2F)nn1)n1cc(-c2cncnc2OC)c2c(N)nc(C)nc21 (single isomer, unassigned; (+)) [Example 303, (+) 7-{1-[1-(2-Fluorophenyl)-1H-1,2,3-triazol-4-yl]propyl}-5-(4-methoxypyrimidin-5-yl)-2-methyl-7H-pyrrolo[2,3-d]pyrimidin-4-amine]
451 nM	47.7 nM	COc1ncccc1-c1cn(Cc2cnn(-c3ccc(C(F)F)cc3)c2)c2ncnc(N)c12 [Example 270, 7-({1-[4-(Difluoromethyl)phenyl]-1H-pyrazol-4-yl}methyl)-5-(2-methoxypyridin-3-yl)-7H-pyrrolo[2,3-d]pyrimidin-4-amine]
69.6 nM	34.7 nM	CCC(c1cn(-c2cccc(F)c2F)nn1)n1c(C#N)c(-c2cnc(C(F)(F)F)nc2)c2c(N)ncnc21 (single isomer, unassigned) [Example 19, 4-amino-7-{1-[1-(2,3-difluorophenyl)-1H-1,2,3-triazol-4-yl]propyl}-5-[2-(trifluoromethyl)pyrimidin-5-yl]-7H-pyrrolo[2,3-d] pyrimidine-6-carbonitrile]
71.9 nM	39.8 nM	Nc1ncnc2c1c(-c1ccc(OC(F)F)cc1)cn2Cc1cn(-c2ccccc2F)nn1 [Example 83, 5-[4-(Difluoromethoxy)phenyl]-7-{[1-(2-fluorophenyl)-1H-1,2,3-triazol-4-yl]methyl}-7H-pyrrolo[2,3-d]pyrimidin-4-amine]
27.6 nM	23.9 nM	COc1nc(C(F)(F)F)ncc1-c1cn(Cc2cn(-c3ccccc3F)nn2)c2ncnc(N)c12 [Example 252, 7-{[1-(2-Fluorophenyl)-1H-1,2,3-triazol-4-yl]methyl}-5-[4-methoxy-2-(trifluoromethyl)pyrimidin-5-yl]-7H-pyrrolo[2,3-d]pyrimidin-4-amine]
120 nM	46.2 nM	CC(c1cn(-c2ccc(F)cc2F)nn1)n1c(C#N)c(-c2ccc(OC3CC3)nc2)c2c(N)ncnc21 (single isomer, unassigned; enantiomer 1) [Example 320, 4-Amino-5-[6-(cyclopropyloxy)pyridin-3-yl]-7-{1-[1-(2,4-difluorophenyl)-1H-1,2,3-triazol-4-yl]ethyl}-7H-pyrrolo[2,3-d]pyrimidine-6-carbonitrile, enantiomer 1]
7.98 nM	4.9 nM	CCC(c1cn(-c2cccc(F)c2F)nn1)n1cc(-c2cc(F)cnc2OC)c2c(N)ncnc21 (single isomer, unassigned; enantiomer 1) [Example 169, 7-{1-[1-(2,3-Difluorophenyl)-1H-1,2,3-triazol-4-yl]propyl}-5-(5-fluoro-2-methoxypyridin-3-yl)-7H-pyrrolo[2,3-d]pyrimidin-4-amine, enantiomer 1]
566 nM	614 nM	CC(c1cn(-c2ccccc2F)nn1)n1cc(-c2ccc(C#N)c(F)c2)c2c(N)ncnc21 (single isomer, unassigned; enantiomer 1) [Example 115, 4-(4-Amino-7-{1-[1-(2-fluorophenyl)-1H-1,2,3-triazol-4-yl]ethyl}-7H-pyrrolo[2,3-d]pyrimidin-5-yl)-2-fluorobenzonitrile, enantiomer 1]
171 nM	63 nM	CCC(c1cn(-c2ccccc2F)nn1)n1cc(-c2cc(F)cnc2OC)c2c(N)ncnc21 (single isomer, unassigned; enantiomer 2) [Example 140, (−) 5-(5-Fluoro-2-methoxypyridin-3-yl)-7-{1-[1-(2-fluorophenyl)-1H-1,2,3-triazol-4-yl]propyl}-7H-pyrrolo[2,3-d]pyrimidin-4-amine, enantiomer 2]
